Target: T1, Bcl-2 protein (Recombinant Human Bcl-2 Protein) (Homo sapiens, UniProt P10415)
T1 construct: purchased Novus Biologicals NBP2-34889
Assay: AS-MS evaluation of binding of the Example 4 mixture library (1200 compounds/well) to Bcl-2, ASMS ratio (%)
Details: AS-MS, Example 4 mixture library; for ASMS ratio (%) n = 1: Bcl-2, replicate n = 1; for ASMS ratio (%) n = 2: Bcl-2, replicate n = 2
Summary of the method: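 Affinity-selection MS: 1200 cpds/well, 20 nM each; hBcl-2 20 μM; 25 mM Tris pH 7.4/150 mM NaCl/0.025% Tween-20/1 mM DTT; 1 h, 23 °C, dark; P-2 size-exclusion spin, MeCN:MeOH 1:1 extraction; RP LC/MS; ratio vs no-protein STD and SEC blank.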

T1 sequence (P10415 whole entry): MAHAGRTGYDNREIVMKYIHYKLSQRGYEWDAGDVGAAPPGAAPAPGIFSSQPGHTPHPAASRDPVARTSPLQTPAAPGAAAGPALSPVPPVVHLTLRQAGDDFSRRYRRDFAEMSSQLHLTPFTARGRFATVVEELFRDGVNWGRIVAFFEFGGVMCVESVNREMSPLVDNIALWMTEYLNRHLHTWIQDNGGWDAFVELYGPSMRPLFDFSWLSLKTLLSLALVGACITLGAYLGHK

Compound | ASMS ratio (%) n = 1 | ASMS ratio (%) n = 2
CCOc1cncc(-c2ccc(C(=O)N3CCN(c4ccc(C(=O)NS(=O)(=O)CCC(F)(F)F)cc4)CC3)c3ccccc23)c1 [Compound B2N036-01, 4-[4-[4-(5-Ethoxypyridin-3-yl)naphthalene-1-carbonyl]piperazin-1-yl]-N-(3,3,3-trifluoropropylsulfonyl)benzamide] | 0.0% | 0.4%
CCOc1cccc(-c2cc(C(=O)N3CCN(c4ccc(C(=O)NS(=O)(=O)CCC(F)(F)F)cc4)CC3)cc(C(C)(C)C)c2)c1 [Compound B2N037-01, 4-[4-[3-tert-Butyl-5-(3-ethoxyphenyl)benzoyl]piperazin-1-yl]-N-(3,3,3-trifluoropropylsulfonyl)benzamide] | 0.0% | 0.0%
CCOc1cncc(-c2cc(C(=O)N3CCN(c4ccc(C(=O)NS(=O)(=O)CCC(F)(F)F)cc4)CC3)cc(C(C)(C)C)c2)c1 [Compound B2N038-01, 4-[4-[3-tert-Butyl-5-(5-ethoxypyridin-3-yl)benzoyl]piperazin-1-yl]-N-(3,3,3-trifluoropropylsulfonyl)benzamide] | 0.0% | 0.0%
CCOc1cncc(-c2cc(C(=O)N3CCN(c4ccc(C(=O)NS(=O)(=O)CCC(F)(F)F)cc4)CC3)cc(C(F)(F)F)c2)c1 [Compound B2N040-01, 4-[4-[3-(5-Ethoxypyridin-3-yl)-5-(trifluoromethyl)benzoyl]piperazin-1-yl]-N-(3,3,3-trifluoropropylsulfonyl)benzamide] | 0.0% | 0.0%
CCOc1cncc(C#Cc2cc(C(=O)N3CCN(c4ccc(C(=O)NS(=O)(=O)CCC(F)(F)F)cc4)CC3)cc(C(F)(F)F)c2)c1 [Compound B2N042-01, 4-[4-[3-[2-(5-Ethoxypyridin-3-yl)ethynyl]-5-(trifluoromethyl)benzoyl]piperazin-1-yl]-N-(3,3,3-trifluoropropylsulfonyl)benzamide] | 0.0% | 0.0%
CCOc1cccc(-c2cnn(-c3cc(C(=O)N4CCN(c5ccc(C(=O)NS(=O)(=O)CCC(F)(F)F)cc5)CC4)cc(C(F)(F)F)c3)c2)c1 [Compound B2N043-01, 4-[4-[3-[4-(3-Ethoxyphenyl)pyrazol-1-yl]-5-(trifluoromethyl)benzoyl]piperazin-1-yl]-N-(3,3,3-trifluoropropylsulfonyl)benzamide] | −1.4% | 0.1%
CCOc1cncc(-c2cnn(-c3cc(C(=O)N4CCN(c5ccc(C(=O)NS(=O)(=O)CCC(F)(F)F)cc5)CC4)cc(C(F)(F)F)c3)c2)c1 [Compound B2N044-01, 4-[4-[3-[4-(5-Ethoxypyridin-3-yl)pyrazol-1-yl]-5-(trifluoromethyl)benzoyl]piperazin-1-yl]-N-(3,3,3-trifluoropropylsulfonyl)benzamide] | 0.2% | 1.4%
CCOc1cccc(-c2ccccc2CN2CCN(c3ccc(C(=O)NS(=O)(=O)CCC(F)(F)F)cc3)CC2)c1 [Compound B2N045-01, 4-[4-[[2-(3-Ethoxyphenyl)phenyl]methyl]piperazin-1-yl]-N-(3,3,3-trifluoropropylsulfonyl)benzamide] | 0.0% | 0.1%
CCOc1cncc(-c2ccccc2CN2CCN(c3ccc(C(=O)NS(=O)(=O)CCC(F)(F)F)cc3)CC2)c1 [Compound B2N046-01, 4-[4-[[2-(5-Ethoxypyridin-3-yl)phenyl]methyl]piperazin-1-yl]-N-(3,3,3-trifluoropropylsulfonyl)benzamide] | 0.0% | −1.2%
CCOc1cccc(-c2ccc(CN3CCN(c4ccc(C(=O)NS(=O)(=O)CCC(F)(F)F)cc4)CC3)cc2C)c1 [Compound B2N047-01, 4-[4-[[4-(3-Ethoxyphenyl)-3-methylphenyl]methyl]piperazin-1-yl]-N-(3,3,3-trifluoropropylsulfonyl)benzamide] | 0.0% | 0.0%
CCOc1cncc(-c2ccc(CN3CCN(c4ccc(C(=O)NS(=O)(=O)CCC(F)(F)F)cc4)CC3)cc2C)c1 [Compound B2N048-01, 4-[4-[[4-(5-Ethoxypyridin-3-yl)-3-methylphenyl]methyl]piperazin-1-yl]-N-(3,3,3-trifluoropropylsulfonyl)benzamide] | 0.0% | −0.7%
CCOc1cccc(-c2ccc(CN3CCN(c4ccc(C(=O)NS(=O)(=O)CCC(F)(F)F)cc4)CC3)c(CC)c2)c1 [Compound B2N049-01, 4-[4-[[4-(3-Ethoxyphenyl)-2-ethylphenyl]methyl]piperazin-1-yl]-N-(3,3,3-trifluoropropylsulfonyl)benzamide] | 0.0% | 0.0%
CCOc1cncc(-c2ccc(CN3CCN(c4ccc(C(=O)NS(=O)(=O)CCC(F)(F)F)cc4)CC3)c(CC)c2)c1 [Compound B2N050-01] | 0.0% | –
CCOc1cccc(-c2ccc(CN3CCN(c4ccc(C(=O)NS(=O)(=O)CCC(F)(F)F)cc4)CC3)cc2F)c1 [Compound B2N051-01, 4-[4-[[4-(3-Ethoxyphenyl)-3-fluorophenyl]methyl]piperazin-1-yl]-N-(3,3,3-trifluoropropylsulfonyl)benzamide] | 0.0% | 0.0%
CCOc1cncc(-c2ccc(CN3CCN(c4ccc(C(=O)NS(=O)(=O)CCC(F)(F)F)cc4)CC3)cc2F)c1 [Compound B2N052-01] | 0.0% | −0.5%
CCOc1cccc(-c2ccc(CN3CCN(c4ccc(C(=O)NS(=O)(=O)CCC(F)(F)F)cc4)CC3)c(OC)c2)c1 [Compound B2N053-01, 4-[4-[[4-(3-Ethoxyphenyl)-2-methoxyphenyl]methyl]piperazin-1-yl]-N-(3,3,3-trifluoropropylsulfonyl)benzamide] | 0.0% | 1.4%
CCOc1cncc(-c2ccc(CN3CCN(c4ccc(C(=O)NS(=O)(=O)CCC(F)(F)F)cc4)CC3)c(OC)c2)c1 [Compound B2N054-01, 4-[4-[[4-(5-Ethoxypyridin-3-yl)-2-methoxyphenyl]methyl]piperazin-1-yl]-N-(3,3,3-trifluoropropylsulfonyl)benzamide] | 0.0% | 0.0%
CCOc1cccc(-c2cc(CN3CCN(c4ccc(C(=O)NS(=O)(=O)CCC(F)(F)F)cc4)CC3)cc(OCC)c2)c1 [Compound B2N055-01] | 0.0% | 0.0%
CCOc1cncc(-c2cc(CN3CCN(c4ccc(C(=O)NS(=O)(=O)CCC(F)(F)F)cc4)CC3)cc(OCC)c2)c1 [Compound B2N056-01, 4-[4-[[3-Ethoxy-5-(5-ethoxypyridin-3-yl)phenyl]methyl]piperazin-1-yl]-N-(3,3,3-trifluoropropylsulfonyl)benzamide] | 0.0% | 0.0%
CCOc1cccc(-c2cc(CN3CCN(c4ccc(C(=O)NS(=O)(=O)CCC(F)(F)F)cc4)CC3)cc(OC(C)C)c2)c1 [Compound B2N057-01, 4-[4-[[3-(3-Ethoxyphenyl)-5-propan-2-yloxyphenyl]methyl]piperazin-1-yl]-N-(3,3,3-trifluoropropylsulfonyl)benzamide] | 0.0% | −1.8%
CCOc1cncc(-c2cc(CN3CCN(c4ccc(C(=O)NS(=O)(=O)CCC(F)(F)F)cc4)CC3)cc(OC(C)C)c2)c1 [Compound B2N058-01] | 0.0% | 0.0%
CCOc1cccc(-c2cc(OC)c(CN3CCN(c4ccc(C(=O)NS(=O)(=O)CCC(F)(F)F)cc4)CC3)c(OC)c2)c1 [Compound B2N059-01, 4-[4-[[4-(3-Ethoxyphenyl)-2,6-dimethoxyphenyl]methyl]piperazin-1-yl]-N-(3,3,3-trifluoropropylsulfonyl)benzamide] | 0.0% | 0.0%
CCOc1cncc(-c2cc(OC)c(CN3CCN(c4ccc(C(=O)NS(=O)(=O)CCC(F)(F)F)cc4)CC3)c(OC)c2)c1 [Compound B2N060-01, 4-[4-[[4-(5-Ethoxypyridin-3-yl)-2,6-dimethoxyphenyl]methyl]piperazin-1-yl]-N-(3,3,3-trifluoropropylsulfonyl)benzamide] | 0.0% | 0.0%
CCOc1cccc(-c2cc(CN3CCN(c4ccc(C(=O)NS(=O)(=O)CCC(F)(F)F)cc4)CC3)cc(C(F)(F)F)c2)c1 [Compound B2N061-01] | 0.0% | 0.0%
CCOc1cncc(-c2cc(CN3CCN(c4ccc(C(=O)NS(=O)(=O)CCC(F)(F)F)cc4)CC3)cc(C(F)(F)F)c2)c1 [Compound B2N062-01, 4-[4-[[3-(5-Ethoxypyridin-3-yl)-5-(trifluoromethyl)phenyl]methyl]piperazin-1-yl]-N-(3,3,3-trifluoropropylsulfonyl)benzamide] | 0.0% | 0.0%

Reference: patent US20250154686A1, “COMPOUND LIBRARY” (CHUGAI SEIYAKU KABUSHIKI KAISHA, priority 2021, published 2025)
